# Source: PMC11233931, “Remodeling tumor‐associated macrophage for anti‐cancer effects by rational design of irreversible inhibition of mitogen‐activated protein kinase‐activated protein kinase 2” (MedComm, 2024)
# Assays:
# Assay in all cases: Eurofins kinase selectivity profile against 380 other human recombinant kinases (Table S2)
# Type in all cases: biochemical
# [1] = target: T1, 380 human recombinant protein kinases (Homo sapiens, UniProt O75116); settings: ROCK-II(h), read-out: Inhibition rate
# T1 construct: purchased Eurofins (Celle Lévescault)
# T1 sequence (O75116 whole entry): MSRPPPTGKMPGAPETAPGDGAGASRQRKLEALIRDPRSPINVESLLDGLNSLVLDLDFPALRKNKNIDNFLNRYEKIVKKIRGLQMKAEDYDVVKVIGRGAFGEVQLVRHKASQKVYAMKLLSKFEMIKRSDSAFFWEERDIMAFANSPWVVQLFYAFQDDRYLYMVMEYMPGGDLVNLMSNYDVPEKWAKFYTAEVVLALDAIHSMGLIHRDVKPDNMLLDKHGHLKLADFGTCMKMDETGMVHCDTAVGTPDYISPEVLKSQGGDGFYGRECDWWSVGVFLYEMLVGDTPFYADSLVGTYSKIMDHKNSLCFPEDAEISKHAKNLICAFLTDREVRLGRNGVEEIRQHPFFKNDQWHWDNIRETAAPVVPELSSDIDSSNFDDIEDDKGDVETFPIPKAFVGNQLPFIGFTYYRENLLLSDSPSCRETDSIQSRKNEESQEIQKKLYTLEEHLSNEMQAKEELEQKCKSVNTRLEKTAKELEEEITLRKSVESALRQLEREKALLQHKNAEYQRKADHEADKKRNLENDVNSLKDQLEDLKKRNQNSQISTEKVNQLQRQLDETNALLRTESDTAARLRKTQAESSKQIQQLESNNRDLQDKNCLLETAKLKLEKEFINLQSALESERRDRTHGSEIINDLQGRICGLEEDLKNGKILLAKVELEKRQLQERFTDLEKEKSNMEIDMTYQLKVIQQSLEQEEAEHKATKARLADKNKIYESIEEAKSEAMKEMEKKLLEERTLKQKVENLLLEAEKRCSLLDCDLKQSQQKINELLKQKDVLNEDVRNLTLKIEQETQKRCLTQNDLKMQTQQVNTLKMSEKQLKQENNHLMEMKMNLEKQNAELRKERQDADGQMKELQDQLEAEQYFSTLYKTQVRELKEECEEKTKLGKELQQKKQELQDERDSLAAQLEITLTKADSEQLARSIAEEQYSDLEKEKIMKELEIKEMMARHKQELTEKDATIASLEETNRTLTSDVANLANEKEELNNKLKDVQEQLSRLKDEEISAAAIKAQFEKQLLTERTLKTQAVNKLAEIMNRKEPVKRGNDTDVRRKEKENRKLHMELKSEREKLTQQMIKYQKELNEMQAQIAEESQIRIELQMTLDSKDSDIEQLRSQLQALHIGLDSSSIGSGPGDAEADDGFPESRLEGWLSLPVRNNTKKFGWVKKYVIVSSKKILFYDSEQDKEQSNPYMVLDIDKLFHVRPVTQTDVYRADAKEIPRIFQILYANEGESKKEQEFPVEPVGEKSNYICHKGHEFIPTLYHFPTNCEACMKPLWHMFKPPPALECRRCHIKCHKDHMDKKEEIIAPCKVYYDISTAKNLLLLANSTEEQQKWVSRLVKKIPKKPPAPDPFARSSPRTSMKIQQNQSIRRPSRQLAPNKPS
# Procedure, shortened: (§1)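 To gauge specificity for MK2, the compound is profiled externally at various concentrations on recombinant human kinases, 380 in total.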
# [2] = target: T2, 380 human recombinant protein kinases (Homo sapiens, UniProt P11362); settings: FGFR1(h), read-out: Inhibition rate
# T2 construct: purchased Eurofins (Celle Lévescault)
# Procedure, shortened: as §1
# [3] = target: T3, 380 human recombinant protein kinases (Homo sapiens, UniProt O96013); settings: PAK4(h), read-out: Inhibition rate
# T3 construct: purchased Eurofins (Celle Lévescault)
# T3 sequence (O96013 whole entry): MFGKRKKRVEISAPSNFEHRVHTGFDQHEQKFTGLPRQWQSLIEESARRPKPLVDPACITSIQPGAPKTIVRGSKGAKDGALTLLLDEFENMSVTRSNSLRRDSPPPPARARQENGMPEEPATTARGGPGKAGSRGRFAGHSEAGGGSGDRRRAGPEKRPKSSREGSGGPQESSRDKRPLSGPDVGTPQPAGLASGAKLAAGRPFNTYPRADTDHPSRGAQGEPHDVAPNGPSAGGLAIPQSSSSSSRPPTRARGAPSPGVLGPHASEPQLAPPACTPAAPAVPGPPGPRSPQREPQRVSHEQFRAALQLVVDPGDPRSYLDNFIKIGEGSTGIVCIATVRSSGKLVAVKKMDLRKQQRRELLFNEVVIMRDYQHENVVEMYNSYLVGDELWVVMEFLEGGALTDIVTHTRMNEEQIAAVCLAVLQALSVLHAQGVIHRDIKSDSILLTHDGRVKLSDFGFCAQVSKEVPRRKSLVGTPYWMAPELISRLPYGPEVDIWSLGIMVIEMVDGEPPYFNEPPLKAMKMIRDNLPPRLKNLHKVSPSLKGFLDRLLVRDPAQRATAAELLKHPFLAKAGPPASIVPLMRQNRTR
# Procedure, shortened: as §1
# [4] = target: T4, 380 human recombinant protein kinases (Homo sapiens, UniProt P49841); settings: GSK3β(h), read-out: Inhibition rate
# T4 construct: purchased Eurofins (Celle Lévescault)
# T4 sequence (P49841 whole entry): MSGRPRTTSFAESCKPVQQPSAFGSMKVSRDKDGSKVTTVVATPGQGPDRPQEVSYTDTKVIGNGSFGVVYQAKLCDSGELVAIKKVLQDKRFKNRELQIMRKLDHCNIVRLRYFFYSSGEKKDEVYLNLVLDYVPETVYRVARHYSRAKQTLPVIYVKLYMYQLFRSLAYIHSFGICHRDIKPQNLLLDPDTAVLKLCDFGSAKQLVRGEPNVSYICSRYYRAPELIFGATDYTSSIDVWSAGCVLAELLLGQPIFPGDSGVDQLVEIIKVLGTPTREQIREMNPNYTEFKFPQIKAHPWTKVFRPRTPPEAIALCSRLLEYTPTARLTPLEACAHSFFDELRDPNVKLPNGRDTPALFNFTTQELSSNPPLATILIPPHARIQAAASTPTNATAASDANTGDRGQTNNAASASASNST
# Procedure, shortened: as §1
# [5] = target: T5, 380 human recombinant protein kinases (Homo sapiens, UniProt Q8IVH8); settings: MAP4K3(h), read-out: Inhibition rate
# T5 construct: purchased Eurofins (Celle Lévescault)
# T5 sequence (Q8IVH8 1-894): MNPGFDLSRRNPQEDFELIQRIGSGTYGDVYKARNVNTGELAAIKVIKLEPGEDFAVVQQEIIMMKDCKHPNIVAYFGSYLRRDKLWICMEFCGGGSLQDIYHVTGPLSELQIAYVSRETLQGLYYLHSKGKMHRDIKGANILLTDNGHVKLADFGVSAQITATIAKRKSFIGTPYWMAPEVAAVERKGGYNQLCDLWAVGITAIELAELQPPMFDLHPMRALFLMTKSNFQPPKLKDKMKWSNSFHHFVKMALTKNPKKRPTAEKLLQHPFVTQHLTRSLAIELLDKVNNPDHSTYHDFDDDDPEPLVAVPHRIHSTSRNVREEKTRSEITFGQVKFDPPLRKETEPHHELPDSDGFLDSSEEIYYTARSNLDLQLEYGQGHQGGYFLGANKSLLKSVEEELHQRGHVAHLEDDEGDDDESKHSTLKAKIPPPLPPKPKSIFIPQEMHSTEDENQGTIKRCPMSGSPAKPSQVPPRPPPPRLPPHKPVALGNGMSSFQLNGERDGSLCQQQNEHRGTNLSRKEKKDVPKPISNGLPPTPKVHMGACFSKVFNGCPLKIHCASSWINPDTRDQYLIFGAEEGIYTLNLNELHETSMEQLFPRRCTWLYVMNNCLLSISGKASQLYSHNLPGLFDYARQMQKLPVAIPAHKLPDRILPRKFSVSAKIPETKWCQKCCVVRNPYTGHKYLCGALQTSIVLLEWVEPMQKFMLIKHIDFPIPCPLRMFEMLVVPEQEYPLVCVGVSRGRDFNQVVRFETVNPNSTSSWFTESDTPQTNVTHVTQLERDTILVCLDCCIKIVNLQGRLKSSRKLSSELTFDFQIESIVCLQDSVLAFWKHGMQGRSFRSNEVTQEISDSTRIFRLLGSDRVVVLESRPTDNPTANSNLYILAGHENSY
# Procedure, shortened: as §1
# [6] = target: T6, 380 human recombinant protein kinases (Homo sapiens, UniProt Q52WX2); settings: SBK1(h), read-out: Inhibition rate (%)
# T6 construct: purchased Eurofins (Celle Lévescault)
# T6 sequence (Q52WX2 whole entry): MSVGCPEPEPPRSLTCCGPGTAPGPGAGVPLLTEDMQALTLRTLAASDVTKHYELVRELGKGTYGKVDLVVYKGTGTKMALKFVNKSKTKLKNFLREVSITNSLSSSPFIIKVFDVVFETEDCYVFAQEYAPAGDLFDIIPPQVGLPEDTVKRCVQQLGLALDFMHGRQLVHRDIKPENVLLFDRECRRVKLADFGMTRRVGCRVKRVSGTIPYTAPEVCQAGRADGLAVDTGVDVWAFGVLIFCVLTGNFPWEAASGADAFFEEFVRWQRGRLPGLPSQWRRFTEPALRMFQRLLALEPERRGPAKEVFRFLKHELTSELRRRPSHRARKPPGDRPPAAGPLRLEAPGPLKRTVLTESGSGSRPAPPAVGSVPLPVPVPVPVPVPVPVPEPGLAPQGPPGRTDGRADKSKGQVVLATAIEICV
# Procedure, shortened: as §1
# [7] = target: T7, 380 human recombinant protein kinases (Homo sapiens, UniProt O15146); settings: MuSK(h), read-out: Inhibition rate
# T7 construct: purchased Eurofins (Celle Lévescault)
# T7 sequence (O15146 24-869): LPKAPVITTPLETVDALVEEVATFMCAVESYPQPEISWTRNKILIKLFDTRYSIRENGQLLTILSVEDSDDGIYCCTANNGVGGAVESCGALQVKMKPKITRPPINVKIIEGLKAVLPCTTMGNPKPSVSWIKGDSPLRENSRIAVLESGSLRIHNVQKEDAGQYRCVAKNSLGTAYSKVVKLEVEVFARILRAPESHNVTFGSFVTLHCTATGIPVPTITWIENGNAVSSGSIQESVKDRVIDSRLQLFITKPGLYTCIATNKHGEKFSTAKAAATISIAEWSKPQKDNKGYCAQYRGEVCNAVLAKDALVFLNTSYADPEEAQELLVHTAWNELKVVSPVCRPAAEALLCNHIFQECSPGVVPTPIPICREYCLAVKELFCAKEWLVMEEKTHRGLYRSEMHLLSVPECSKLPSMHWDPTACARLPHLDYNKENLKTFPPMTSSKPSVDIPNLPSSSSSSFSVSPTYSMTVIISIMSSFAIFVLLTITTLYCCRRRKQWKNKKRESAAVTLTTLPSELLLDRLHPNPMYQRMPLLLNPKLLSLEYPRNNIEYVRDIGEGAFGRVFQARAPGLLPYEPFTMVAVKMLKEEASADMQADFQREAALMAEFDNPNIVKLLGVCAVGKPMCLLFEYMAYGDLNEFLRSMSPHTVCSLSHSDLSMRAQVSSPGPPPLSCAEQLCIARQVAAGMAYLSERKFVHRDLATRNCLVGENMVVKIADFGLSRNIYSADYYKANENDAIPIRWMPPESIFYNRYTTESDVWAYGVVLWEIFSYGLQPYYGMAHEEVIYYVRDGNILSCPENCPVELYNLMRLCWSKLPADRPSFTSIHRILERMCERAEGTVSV
# Procedure, shortened: as §1
# [8] = target: T8, 380 human recombinant protein kinases (Homo sapiens, UniProt O15075); settings: DCAMKL1(h), read-out: Inhibition rate
# T8 construct: purchased Eurofins (Celle Lévescault)
# T8 sequence (O15075 whole entry): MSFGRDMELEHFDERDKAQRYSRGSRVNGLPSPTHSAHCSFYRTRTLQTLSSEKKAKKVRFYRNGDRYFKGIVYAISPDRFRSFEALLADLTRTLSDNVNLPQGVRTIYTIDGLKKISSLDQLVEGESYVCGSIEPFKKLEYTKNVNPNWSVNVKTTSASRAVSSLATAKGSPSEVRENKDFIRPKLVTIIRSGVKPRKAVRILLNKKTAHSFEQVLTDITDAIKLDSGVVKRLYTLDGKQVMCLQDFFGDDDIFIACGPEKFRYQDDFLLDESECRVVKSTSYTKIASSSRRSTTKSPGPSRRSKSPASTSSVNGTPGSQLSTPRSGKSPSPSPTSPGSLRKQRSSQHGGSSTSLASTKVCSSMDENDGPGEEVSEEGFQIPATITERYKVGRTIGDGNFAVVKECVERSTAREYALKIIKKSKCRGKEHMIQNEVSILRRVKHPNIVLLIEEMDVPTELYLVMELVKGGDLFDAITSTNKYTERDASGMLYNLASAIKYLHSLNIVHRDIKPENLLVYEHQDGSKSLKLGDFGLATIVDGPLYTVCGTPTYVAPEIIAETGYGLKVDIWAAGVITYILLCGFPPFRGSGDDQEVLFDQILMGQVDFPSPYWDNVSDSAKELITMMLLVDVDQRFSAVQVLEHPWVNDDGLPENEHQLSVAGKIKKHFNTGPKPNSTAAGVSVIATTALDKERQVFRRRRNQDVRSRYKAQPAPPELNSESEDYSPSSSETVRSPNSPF
# Procedure, shortened: as §1
# [9] = target: T9, 380 human recombinant protein kinases (Homo sapiens, UniProt P48736); settings: PI3 Kinase (p120γ)(h), read-out: Inhibition rate (%)
# T9 construct: purchased Eurofins (Celle Lévescault)
# T9 sequence (P48736 whole entry): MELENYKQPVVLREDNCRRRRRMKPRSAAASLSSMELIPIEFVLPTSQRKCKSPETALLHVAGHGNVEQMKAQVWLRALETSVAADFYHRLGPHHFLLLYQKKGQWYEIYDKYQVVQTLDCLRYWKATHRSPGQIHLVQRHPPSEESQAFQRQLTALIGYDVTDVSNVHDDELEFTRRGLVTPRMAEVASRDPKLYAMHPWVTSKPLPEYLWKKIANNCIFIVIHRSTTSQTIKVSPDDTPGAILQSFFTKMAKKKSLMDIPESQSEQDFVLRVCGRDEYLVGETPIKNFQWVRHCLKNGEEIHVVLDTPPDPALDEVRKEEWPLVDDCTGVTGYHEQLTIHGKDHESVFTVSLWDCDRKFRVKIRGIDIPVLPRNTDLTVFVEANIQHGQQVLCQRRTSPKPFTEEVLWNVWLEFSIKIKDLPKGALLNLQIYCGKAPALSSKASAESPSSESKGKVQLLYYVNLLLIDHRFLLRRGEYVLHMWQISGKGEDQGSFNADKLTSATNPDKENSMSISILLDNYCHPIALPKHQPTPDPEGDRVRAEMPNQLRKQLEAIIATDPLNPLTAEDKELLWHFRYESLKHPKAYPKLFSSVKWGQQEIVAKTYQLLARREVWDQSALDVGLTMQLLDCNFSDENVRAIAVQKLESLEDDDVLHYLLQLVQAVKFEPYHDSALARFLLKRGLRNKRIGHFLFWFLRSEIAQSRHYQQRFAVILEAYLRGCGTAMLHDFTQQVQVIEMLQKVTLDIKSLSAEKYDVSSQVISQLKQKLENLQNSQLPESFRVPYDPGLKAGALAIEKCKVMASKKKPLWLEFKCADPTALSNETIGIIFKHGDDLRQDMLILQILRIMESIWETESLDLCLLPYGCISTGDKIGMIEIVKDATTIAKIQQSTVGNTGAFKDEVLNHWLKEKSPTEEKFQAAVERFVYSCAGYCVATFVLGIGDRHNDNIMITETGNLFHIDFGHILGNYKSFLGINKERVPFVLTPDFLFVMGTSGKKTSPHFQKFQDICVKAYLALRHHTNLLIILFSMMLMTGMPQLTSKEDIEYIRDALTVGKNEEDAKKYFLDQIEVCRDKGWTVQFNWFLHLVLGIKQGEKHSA
# Procedure, shortened: as §1
smiles,measurement,setting,value
C=CC(=O)Nc1cc(-c2cc(-c3cc4c([nH]3)CCNC4=O)ccn2)ccc1OC(F)(F)F [compound 11],inhibition at 0.01 µM,[1]; 10 nM,-3%
same,inhibition at 0.1 µM,[1]; 100 nM,0%
same,inhibition at 1 µM,[1]; 1000 nM,-6%
same,inhibition at 0.01 µM,[2]; 10 nM,-2%
same,inhibition at 0.1 µM,[2]; 100 nM,6%
same,inhibition at 1 µM,[2]; 1000 nM,7%
same,inhibition at 0.01 µM,[3]; 10 nM,2%
same,inhibition at 0.1 µM,[3]; 100 nM,-2%
same,inhibition at 1 µM,[3]; 1000 nM,2%
same,inhibition at 0.01 µM,[4]; 10 nM,-10%
same,inhibition at 0.1 µM,[4]; 100 nM,-7%
same,inhibition at 1 µM,[4]; 1000 nM,5%
same,inhibition at 0.01 µM,[5]; 10 nM,-8%
same,inhibition at 0.1 µM,[5]; 100 nM,-4%
same,inhibition at 1 µM,[5]; 1000 nM,3%
same,inhibition at 0.01 µM,[6]; 10 nM,-1%
same,inhibition at 0.1 µM,[6]; 100 nM,-8%
same,inhibition at 1 µM,[6]; 1000 nM,3%
same,inhibition at 0.01 µM,[7]; 10 nM,7%
same,inhibition at 0.1 µM,[7]; 100 nM,7%
same,inhibition at 1 µM,[7]; 1000 nM,7%
same,inhibition at 0.01 µM,[8]; 10 nM,3%
same,inhibition at 0.1 µM,[8]; 100 nM,-1%
same,inhibition at 1 µM,[8]; 1000 nM,-1%
same,inhibition at 0.01 µM,[9]; 10 nM,1%
same,inhibition at 0.1 µM,[9]; 100 nM,-1%
same,inhibition at 1 µM,[9]; 1000 nM,3%
